Laboratory results taken from PMC8781304, “Arene-Ruthenium(II) Complexes with Carbothiamidopyrazoles as a Potential Alternative for Antibiotic Resistance in Human” (Molecules, 2022).
Values joined by “and” are separate entries in the source; they are usually repeats but may differ in a detail not shown here. Equal entries are not always repeated.

What was measured:
S. aureus ATCC 29213 = assay: Time-kill test; assay type: cell-based, Staphylococcus aureus; settings: 1 × MIC
Experimental: (§1) The time-kill experiments were performed as described previously. Briefly, inocula were prepared in TSB medium (TSB; […] BTL Sp. z o.o., Łódź, Poland). All samples were incubated at 35 °C and 80 rpm for varied time intervals (2, 4, 6, 12, 18, 24, 48h). The percentage of dead cells was calculated according to the growth control by determining the number of living cells (CFU/mL) of each tube using the agar plate count method. Samples were immediately serially diluted ten-fold in 0.01 M phosphate buffered saline (PBS, Bimed Lublin S.A., Lublin, Poland) at pH 7.0 and 10 μL aliquots were spot-inoculated in duplicate onto MHA plates. Agar plates were incubated at 37 °C overnight before determining the viable count. Two independent experiments were carried out.

[1] = test system: human foreskin fibroblast HFF-1 (ATCC-SCRC-1041); assay: Cytotoxicity, MTT reduction assay; assay type: cell-based; settings: HFF-1, MTT; for IC50: 24 h, tested 3.9–500 μM
Experimental: The cytotoxicity of arene-ruthenium(II) complexes 3a–3d was determined using the MTT (3-(4,5-dimethylthiazol-2-yl)-2,5-diphenyltetrazolium bromide; Sigma, St. Louis, MO, USA) reduction assay and a human foreskin fibroblast HFF-1 culture (ATCC-SCRC-1041) (LGC Standards Sp. z o.o., Poland) at a final concentration range of 3.9–500 µM. The HFF-1 cells were cultured in Dulbecco’s Modified Eagle’s Medium (DMEM; Sigma, St. Louis, MO, USA) with 15% fetal bovine serum (FBS; BioWest, Nuaillé, France) and penicillin/streptomycin (100 × stock solution; BioWest, Nuaillé, France), 1 × 10^6 cell/mL (100 µL/well) in 96-well tissue culture plates (Nunc, Roskilde, Denmark) for 24 h at 37 °C/5% CO2. The cells were then exposed to arene-ruthenium(II) complexes for 24 h at 37 °C. The control (untreated) cells were exposed to culture medium alone or culture medium containing 2% DMSO to exclude the effect of the solvent used to prepare the stock solutions of the tested complexes. Next, fresh culture medium (100 µL/well) and MTT (1.5 mg/mL, 50 µL/well) were added, and cells were incubated for two hours under the above conditions. MTT was […] blue formazan crystals produced by the metabolically active cells. Finally, the MTT solution was removed and replaced with 100 µL/well of 20% sodium dodecyl sulfate (SDS; Sigma, St. Louis, MO, USA) for 24 h (room temperature) to dissolve the blue formazan. Based on the absorbance (λ = 550 nm) of tested and control cells (100% viability), the percentage of cell viability after exposure was calculated. For each sample, the experiment was performed twice.

[2] = test system: Enterococcus faecalis ATCC 29212; assay: MIC and MBC/MFC by broth microdilution; assay type: cell-based; settings: E. faecalis ATCC 29212
Experimental: (§2) Reference strains of bacteria and fungi: Staphylococcus aureus ATCC 29213, Staphylococcus epidermidis ATCC 12228, Enterococcus faecalis ATCC 29212, Pseudomonas aeruginosa ATCC 25619, Proteus vulgaris ATCC 8427, and Candida albicans ATCC 10231 (Manassas, VA, USA) were used to screen the antimicrobial activity of the arene-ruthenium(II) complexes 3a-3d, NH4PF6 and selected antibiotics. The microorganisms were grown for 24 h (bacteria) or 48 h (fungi) in 35-37 °C in tryptic-soy agar (TSA; BTL Sp. z o.o., Łódź, Poland) or Sabouraud's dextrose agar (SDA; BTL Sp. z o.o., Łódź, Poland) according to nutritional requirements. Microbial suspensions at a density of about 5 × 10^5 CFU/mL were prepared in Mueller-Hinton broth (MHB; BTL Sp. z o.o., Łódź, Poland) or RPMI-1640 medium (Sigma, St. Louis, MO, USA) for bacteria and fungi, respectively. […] Louis, MO, USA). Stock solutions of the lyophilized compounds were freshly prepared in 100% DMSO (POCh, Gliwice, Poland) for the complexes, or in water for injection (Sigma, St. Louis, MO, USA) in the case of antibiotics. […] MIC and MBC/MFC were defined as the lowest concentrations of the compounds inhibiting bacterial/fungal growth or able to kill added microbial inoculum, respectively, and were evaluated as described by […] et al.. Experiments were carried out in duplicate.

[3] = test system: Candida albicans ATCC 10231; assay: MIC and MBC/MFC by broth microdilution; assay type: cell-based; settings: C. albicans ATCC 10231
Experimental: as §2

[4] = test system: Supercoiled plasmid pUC57 DNA; assay: Cleavage of pUC57 DNA, agarose gel electrophoresis; assay type: biochemical; settings: pUC57, 100, 200 and 300 µM
Experimental: DNA supercoiling plays a key role in gene expression and genome organization. The agarose gel electrophoresis assay was used to check whether the tested complexes 3a–3c are able to cleave DNA. Supercoiled plasmid pUC57 DNA (4634 bp); Thermo Scientific, ABO Sp. z o.o., Gdansk, Poland), was incubated with tested compounds (100, 200 and 300 µM). Next, loading buffer (1 μL) containing […] bromophenol blue, 0.25% xylene cyanol and 30% glycerol was added to allow the samples to be loaded into 1% w/v agarose gel. Electrophoresis was performed at 75 V in Tris-acetate- EDTA (TAE) buffer. The gel was stained using Midori green advance DNA stain (Genetics, ABO Sp. z o.o., Gdansk, Poland), and visualised under UV light with the BioRad Gel Doc 2000 system using LABWORK software (Hercules, California, USA). All experiments were carried out in triplicate under the same conditions.

[5] = test system: Staphylococcus aureus ATCC 29213; assay: Fluorescence microscopy, Hoechst 33258 / propidium iodide viability; assay type: cell-based; settings: S. aureus ATCC 29213; MIC concentration, 24 h
Experimental: (§3) Staphylococcus aureus ATCC 29213 and Staphylococcus epidermidis ATCC 12228 strains were treated with tested compounds 2a–2d and 3a–3d at a concentration 1 × MIC for 24h, while untreated cells were used as a growth control. After incubation, the cells were harvested and a suspension of 1 × 10^5 cells/mL in PBS was prepared. Following this, 1 µl of the fluorescent dyes Hoechst 33258 and propidium iodide (15 µg/mL each) (Sigma, St. Louis, MO, USA) were added. The obtained mixture was incubated in the dark at room temperature for 15–20 min. After incubation, the cell suspensions, placed on glass slides, were analyzed under an Olympus IX 70 fluorescence microscope (Shinjuku, Tokyo, Japan), using a 360–370 nm UV filter. Photos were taken at 10 × 20 magnification.

[6] = test system: Staphylococcus epidermidis ATCC 12228; assay: as above; assay type: cell-based; settings: S. epidermidis ATCC 12228; MIC concentration, 24 h
Experimental: as §3

[7] = test system: S. epidermidis ATCC 12228; assay: Time-kill test; assay type: cell-based, Staphylococcus epidermidis; settings: 1 × MIC
Experimental: as §1

[8] = test system: S. epidermidis ATCC 12228; assay: Cell lysis (bacteriolysis, OD600); assay type: cell-based, Staphylococcus epidermidis; settings: 1 × MBC

Compound	Time-kill: bacteriostatic or bactericidal (S. aureus ATCC 29213)	Concentration above which cytotoxicity was seen [1]	IC50 [1]	MBC/MFC [2] [µg/mL]	MIC [2] [µg/mL]	MBC/MFC [3] [µg/mL]	MIC [3] [µg/mL]	Cleavage of plasmid DNA, in words [4]	Change in bacterial viability (Hoechst 33258 / PI fluorescence) [5]	Change in bacterial viability (Hoechst 33258 / PI fluorescence) [6]	Time-kill: bacteriostatic or bactericidal [7]	Cell lysis, change of OD600 [8]
Cc1cc(C)[n+]2n1C(N)=[S+][Ru-]2[Cl].Cc1ccc(C(C)C)cc1.F[P-](F)(F)(F)(F)F [Compound 3a]	bacteriostatic	above 250 μM	380 µM and > 350 µM	125	125	>1000	500	did not affect DNA structure	Less changes in cell survival	Less changes in cell survival	bacteriostatic	not found to change OD600 values
CCc1cc(CC)[n+]2n1C(N)=[S+][Ru-]2[Cl].Cc1ccc(C(C)C)cc1.F[P-](F)(F)(F)(F)F [Compound 3b]	bacteriostatic	above 250 μM	355 µM and > 350 µM	125	62.5	>1000	1000	able to cut plasmid DNA	Less changes in cell survival	Less changes in cell survival	bacteriostatic	not found to change OD600 values
[(η^6-p-cymene)Ru(1-[amino(thioxo)methyl]-5-hydroxy-3-phenyl-1H-pyrazole)PF6 [Compound 3c]	bacteriostatic	–	264 µM	250	<31.2	>1000	>1000	able to cut plasmid DNA	greatest changes in bacterial viability	greatest changes in bacterial viability	bactericidal	quite moderate decrease in OD600
